Biological target: T1, LRPPRC (endogenous, A549 cells) (Homo sapiens, UniProt P42704)
T1 construct: endogenous protein in A549 lung adenocarcinoma cells; no tag
Experiment: cellular thermal shift assay (CETSA), immunoblot
Type: cell-based
Details: 40 μM GAA vs DMSO

Compound: Cc1cc2c(C(C)C)c(O)c(O)c(C=O)c2c(O)c1-c1c(C)cc2c(C(C)C)c(O)c(O)c(C=O)c2c1O [GAA]
- CETSA thermal stabilization: GAA could increase the thermal stabilization of LRPPRC
